The values that follow are results of earlier work, collected in patent US20230398047A1, “COMPOSITION COMPRISING SKIN CARE ACTIVE INGREDIENT AND TWO POLYGLYCERYL FATTY ACID ESTERS” (L'OREAL, priority 2021, published 2023).

SMILES strings stand for the structures.

For this series the following is noted: octan-1-ol/water; values said to be known or calculated.
Consider `CCOC1=C(O)C(=O)O[C@@H]1[C@@H](O)CO` [3-O-ETHYL ASCORBIC ACID, 3-O-ethyl ascorbic acid], for which the logP is recorded as 3-O-ETHYL ASCORBIC ACID (LogP = −1.3). With `O=C1O[C@H]([C@@H](O)CO)C(O)=C1O[C@H]1O[C@H](CO)[C@@H](O)[C@H](O)[C@H]1O` [ASCORBYL GLUCOSIDE, ascorbyl glucoside], the logP entry was “ASCORBYL GLUCOSIDE (logP = −3.4)”. For the compound `CC(O)C[C@H]1OC[C@@H](O)[C@H](O)[C@H]1O` (stereo partly drawn) [HYDROXYPROPYL TETRAHYDROPYRANTRIOL, C-beta-D-xylopyranoside-2-hydroxpropane], the logP result is listed as “HYDROXYPROPYL TETRAHYDROPYRANTRIOL (logP = −1.5)”. For `NC(=O)c1cccnc1` [NIACINAMIDE, niacinamide, reference compound], the logP entry is listed as “NIACINAMIDE (LogP = −0.37)”. Turning to `CC(c1ccccc1)c1ccc(O)cc1O` (centres unmarked) [PHENYLETHYL RESORCINOL, 4-(1-phenylethyl)-1,3-benzenediol], the logP entry is listed as “PHENYLETHYL RESORCINOL(logP = 3.07)”.
